This experiment addresses T1, α-synuclein (Homo sapiens, UniProt P37840).
T1 construct: purchased Sino Biological
The experiment in a line: Detection of the ability of compounds to inhibit α-synuclein self-aggregation by HPLC. It is filed as biochemical. The note with it: test compound 200 μg/mL, α-synuclein 250 μg/ml, 37° C., 9 days, HPLC peak area of α-synuclein multimers vs model group; for inhibition at 200 µg/mL: read-out: inhibition rate (%). Here is the method: The test compound (for poorly soluble compounds, dissolve with an appropriate amount of DMSO first) and fresh α-synuclein monomers (purchased from Sino Biological) were added to pure water to a final protein concentration of 250 μg/ml, and the concentration of the test compound was 200 μg/mL, followed by incubation at 37° C. for 9 days. The peak area of α-synuclein multimers after incubation was detected by HPLC and the inhibition rate was calculated. […] Inhibition rate=(peak area of model group−peak area of example group)/peak area of model group×100%.

`CCCCC(Cc1c[nH]c2ccccc12)NC(=O)c1cc2ccc(N3CCN(C)CC3)nc2s1` (stereo not drawn) [Example 2, N-[1-(1H-indol-3-yl)hexyl-2-yl]-6-(4-methylpiperazin-1-yl) thiophene[2,3-b]pyridine-2-carboxamide]: the inhibition (usually the change of the read-out against control, counted positive when it falls) at 200 µg/mL amounted to 86.8%.

On to `CCCCC(Cc1c[nH]c2ccccc12)NC(=O)c1nc2ccc(N3CCN(C)CC3)cc2s1` (stereo not drawn) [Example 4, N-(1-(1H-indol-3-yl)hexane-2-yl)-6-(4-methylpiperazin-1-yl) benzo[d]thiazole-2-carboxamide], for which the inhibition at 200 µg/mL came to 90.6%.

Consider `CCCCC(Cc1c[nH]c2ccccc12)NC(=O)c1cc2cc(F)c(N3CCN(C)CC3)cc2s1` (stereo not drawn) [Example 5, N-(1-(1H-indol-3-yl)hexane-2-yl)-5-fluoro-6-(4-methylpiperazin-1-yl) benzo[b]thiophene-2-carboxamide], for which the inhibition at 200 µg/mL was found to be 98.6%.

In the case of `CCCCC(Cc1c[nH]c2ccccc12)NC(=O)c1cc2c(F)cc(N3CCN(C)CC3)cc2s1` (stereo not drawn) [Example 6, N-(1-(1H-indol-3-yl)hexane-2-yl)-4-fluoro-6-(4-methylpiperazin-1-yl) benzo[b]thiophene-2-carboxamide], the inhibition at 200 µg/mL turned out to be 97.8%.

Turning to `CCCCC(Cc1c[nH]c2ccccc12)NC(=O)c1cc2cc(N3CCN(C)CC3)ccc2s1` (stereo not drawn) [Example 7, N-(1-(1H-indol-3-yl)hexane-2-yl)-5-(4-methylpiperazine-1-yl) benzo[b]thiophene-2-carboxamide], the inhibition at 200 µg/mL was found to be 71.5%.

For `CCCCC(Cc1c[nH]c2ccccc12)NC(=O)c1cc2cnc(N3CCN(C)CC3)cc2s1` (stereo not drawn) [Example 8, N-(1-(1H-indol-3-yl)hexane-2-yl)-6-(4-methylpiperazin-1-yl) thieno[3,2-c] pyridine-2-carboxamide], the inhibition at 200 µg/mL was 73.7%.

Take `CCCCC(Cc1c[nH]c2ccccc12)NC(=O)c1cc2c(C)nc(N3CCN(C)CC3)cc2s1` (stereo not drawn) [Example 9, N-(1-(1H-indol-3-yl)hexane-2-yl)-4-methyl-6-(4-methylpiperazin-1-yl) thieno[3,2-c]pyridine-2-carboxamide]: the inhibition at 200 µg/mL was determined as 78.1%.

As to `CCCCC(Cc1c[nH]c2ccccc12)NC(=O)c1cc2cccc(N3CCN(C)CC3)c2s1` (stereo not drawn) [Example 10, N-(1-(1H-indol-3-yl)hexane-2-yl)-7-(4-methylpiperazin-1-yl) benzo[b]thiophene-2-carboxamide], the inhibition at 200 µg/mL was found to be 73.1%.

On to `CCCCC(Cc1c[nH]c2ccccc12)NC(=O)c1sc2cc(N3CCN(C)CC3)ccc2c1C` (stereo not drawn) [Example 11, N-(1-(1H-indol-3-yl)hexane-2-yl)-3-methyl-6-(4-methylpiperazin-1-yl) benzo[b]thiophene-2-carboxamide], for which the inhibition at 200 µg/mL was determined as 73.4%.

Turning to `CCCCC(Cc1c[nH]c2ccccc12)NC(=O)c1cc2ccc(N3CCC(C)CC3)cc2s1` (stereo not drawn) [Example 12, N-(1-(1H-indol-3-yl)hexane-2-yl)-6-(4-methylpiperidin-1-yl) benzo[b]thiophene-2-carboxamide], the inhibition at 200 µg/mL was found to be 86.9%.

Turning to `CCCCC(Cc1c[nH]c2ccccc12)NC(=O)c1cc2ccc(N3CCN(C(C)C)CC3)cc2s1` (stereo not drawn) [Example 13, N-(1-(1H-indol-3-yl)hexane-2-yl)-6-(4-isopropylpiperazin-1-yl) benzo[b]thiophene-2-carboxamide], the inhibition at 200 µg/mL came out at 94.4%.

Regarding `CCCCC(Cc1c[nH]c2ccccc12)NC(=O)c1cc2ccc(N3CCN(c4ccccc4)CC3)cc2s1` (stereo not drawn) [Example 14, N-(1-(1H-indol-3-yl)hexane-2-yl)-6-(4-phenylpiperazine-1-yl) benzo[b]thiobene-2-carboxamide], the inhibition at 200 µg/mL came to 73.5%.

Take `CCCCC(Cc1c[nH]c2ccccc12)NC(=O)c1cc2ccc(N3CCC(F)(F)CC3)cc2s1` (stereo not drawn) [Example 15, N-(1-(1H-indol-3-yl)hexane-2-yl)-6-(4,4-difluoropiperidin-1-yl) benzo[b]thiophene-2-carboxamide]: the inhibition at 200 µg/mL is 96.2%.

As for `CCCCC(Cc1c[nH]c2ccccc12)NC(=O)c1cc2ccc(N3CCC(C)(C)CC3)cc2s1` (stereo not drawn) [Example 16, N-(1-(1H-indol-3-yl)hexane-2-yl)-6-(4,4-dimethylpiperidin-1-yl) benzo[b]thiobene-2-carboxamide], the inhibition at 200 µg/mL was determined as 96.3%.

`CCCCC(Cc1c[nH]c2ccccc12)NC(=O)c1cc2ccc(N3CCN(C)CC3)c(F)c2s1` (stereo not drawn) [Example 17, 7-Fluoro-N-[1-(1H-indol-3-yl)hexyl-2-yl]-6-(4-methylpiperazin-1-yl)-1-benzothiophene-2-carboxamide]: the inhibition at 200 µg/mL was 98.2%.

With `CCCCC(Cc1c[nH]c2ccccc12)NC(=O)c1cc2cnc(N3CCC(C)CC3)cc2s1` (stereo not drawn) [Example 18, N-(1-(1H-indol-3-yl)hexane-2-yl)-6-(4-methylpiperidin-1-yl) thieno[3,2-c]pyridine-2-carboxamide], the inhibition at 200 µg/mL was 76.9%.

As to `CCCCC(Cc1c[nH]c2ccccc12)NC(=O)c1cc2ccc(N3CCC(O)CC3)cc2s1` (stereo not drawn) [Example 19, N-(1-(1H-indol-3-yl)hexane-2-yl)-6-(4-hydroxypiperidin-1-yl) benzo[b]thiophene-2-carboxamide], the inhibition at 200 µg/mL was 93.5%.

Turning to `CCCCC(Cc1c[nH]c2ccccc12)NC(=O)c1cc2ccc(N3CCC4(CC3)COC4)cc2s1` (stereo not drawn) [Example 20, N-[1-(1H-indol-3-yl)hexane-2-yl]-6-(2-oxa-7-azaspiro [3.5]nonan-7-yl)-1-benzothiophene-2-carboxamide], the inhibition at 200 µg/mL was determined as 95.6%.

Take `CCCCC(Cc1c[nH]c2ccccc12)NC(=O)c1cc2ccc(N3CCC4(CC3)CN(C3CCN(C)CC3)C4)cc2s1` (stereo not drawn) [Example 21]: the inhibition at 200 µg/mL amounted to 78.2%.

With `CCCCC(Cc1c[nH]c2ccccc12)NC(=O)c1cc2ccc(N3CCC4(CC3)CN(C)C4)cc2s1` (stereo not drawn) [Example 22], the inhibition at 200 µg/mL came to 83.8%.

Regarding `CCCCC(Cc1c[nH]c2ccccc12)NC(=O)c1cc2ccc(N3CCOCC3)cc2s1` (stereo not drawn) [Example 23, N-(1-(1H-indol-3-yl)hexane-2-yl)-6-morpholinobenzo[b]thiophene-2-carboxamide], the inhibition at 200 µg/mL came out at 89.7%.

On to `CCCCC(Cc1c[nH]c2ccccc12)NC(=O)c1cc2ccc(N3CCC(N(C)C)CC3)cc2s1` (stereo not drawn) [Example 24, N-(1-(1H-indol-3-yl)hexane-2-yl)-6-(4-(dimethylamino)piperidin-1-yl) benzo[b]thiophene-2-carboxamide], for which the inhibition at 200 µg/mL came to 89.7%.

In the case of `CCCCC(Cc1c[nH]c2ccccc12)NC(=O)c1cc2ccc(N3CC4(CN(C)C4)C3)cc2s1` (stereo not drawn) [Example 25, N-(1-(1H-indol-3-yl)hexane-2-yl)-6-(6-methyl-2,6-diazaspiro [3.3]heptane-2-yl) benzo[b]thiophene-2-carboxamide], the inhibition at 200 µg/mL amounted to 90.8%.

In the case of `CCCCC(Cc1c[nH]c2ccc(F)cc12)NC(=O)c1cc2ccc(N3CCN(C)CC3)cc2s1` (stereo not drawn) [Example 26, N-(1-(5-fluoro-1H-indole-3-yl)hexane-2-yl)-6-(4-methylpiperazine-1-yl) benzo [b] thiophene-2-carboxamide], the inhibition at 200 µg/mL worked out at 93.3%.

For the compound `CCCCC(Cc1c[nH]c2ccccc12)NC(=O)c1cc2ccc(N3CCN(C)CC3)cc2o1` (stereo not drawn) [Example 27, N-(1-(1H-indole-3-yl)hexan-2-yl)-6-(4-methylpiperazine-1-yl) benzofuran-2-carboxamide], the “inhibition rate (%)” value came to 87.6%.

As to `CCCCC(Cc1c[nH]c2ccccc12)NC(=O)c1cc2ccc(N3CCN(C)CC3)cc2[nH]1` (stereo not drawn) [Example 28, N-(1-(1H-indole-3-yl)hexane-2-yl)-6-(4-methylpiperazine-1-yl)-1H-indole-2-carboxamide], the inhibition at 200 µg/mL is 73%.

Take `CCCCC(Cc1c[nH]c2ccccc12)NC(=O)c1cc2cnc(N3CCN(C)CC3)nc2s1` (stereo not drawn) [Example 29, N-(1-(1H-indole-3-yl)hexane-2-yl)-2-(4-methylpiperazine-1-yl) thieno [2,3-d]pyrimidine-6-carboxamide]: the inhibition at 200 µg/mL was determined as 96.7%.

With `CCCCC(Cc1c[nH]c2ccc(C)cc12)NC(=O)c1cc2ccc(N3CCN(C)CC3)cc2s1` (stereo not drawn) [Example 30, N-(1-(5-methyl-1H-indole-3-yl)hexane-2-yl)-6-(4-methylpiperazine-1-yl) benzo[b]thiophene-2-carboxamide], the inhibition at 200 µg/mL worked out at 71.4%.

Turning to `CCCCC(Cc1c[nH]c2ccncc12)NC(=O)c1cc2ccc(N3CCN(C)CC3)cc2s1` (stereo not drawn) [Example 31, N-(1-(1H-pyrrole[3,2-c]pyridin-3-yl)hexane-2-yl)-6-(4-methylpiperazine-1-yl) benzo[b]thiophene-2-carboxamide], the inhibition at 200 µg/mL was 95.3%.

With `CC(C)=CCC(Cc1c[nH]c2ccccc12)NC(=O)c1cc2ccc(N3CCN(C)CC3)cc2s1` (stereo not drawn) [Example 32, N-(1-(1H-indol-3-yl)-5-methyl-4-hexene-2-yl)-6-(4-methylpiperazin-1-yl) benzo[b]thiophene-2-carboxamide], the inhibition at 200 µg/mL stood at 86.1%.

For `CC(C)CCC(Cc1c[nH]c2ccccc12)NC(=O)c1cc2ccc(N3CCN(C)CC3)cc2s1` (stereo not drawn) [Example 33, N-(1-(1H-indol-3-yl)-5-methylhexane-2-yl)-6-(4-methylpiperazin-1-yl) benzo[b]thiophene-2-carboxamide], the inhibition at 200 µg/mL stood at 93.4%.

Consider `COCCC(Cc1c[nH]c2ccccc12)NC(=O)c1cc2ccc(N3CCN(C)CC3)cc2s1` (stereo not drawn) [Example 34, N-[1-(CH-indol-3-yl)-4-methoxybutyl-2-yl]-6-(4-methylpiperazin-1-yl)-1-benzothiophene-2-carboxamide], for which the inhibition at 200 µg/mL came out at 97.5%.

Take `C/C=C\CC(Cc1c[nH]c2ccccc12)NC(=O)c1cc2ccc(N3CCN(C)CC3)cc2s1` (stereo not drawn) [Example 35, (Z)—N-(1-(1H-indol-3-yl)-4-hexene-2-yl)-6-(4-methylpiperazin-1-yl) benzo[b]thiophene-2-carboxamide]: the inhibition at 200 µg/mL turned out to be 85.4%.

Values taken from patent US20250074902A1, “FUSED BICYCLIC HETEROARYL AMIDE COMPOUND AS PROTEIN AGGREGATION INHIBITOR” (SHANGHAI JINGXIN BIOMEDICAL CO., LTD., priority 2021, published 2025).
